In ChEMBL document CHEMBL1201862, “PubChem BioAssay data set” (2004):
The source made the active and inactive calls.

Experiments:
Fatty acid synthase [1] = target: T1, Fatty acid synthase (Homo sapiens, UniProt P49327); assay: inhibition of human FAS-TE enzyme activity – biochemical, endpoint fluorescence intensity, uHTS hits, dose response (AID 624327); type: functional;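 note: fluorescence from hydrolysis of an O-methyl fluorescein acyl ester substrate by the enzyme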
cells = type: functional, cell-based; conditions: HEK-CNG
Galanin receptor type 3 = target: T2, Galanin receptor type 3 (Homo sapiens, UniProt O60755); assay: Fluorescence-based cell-based primary high throughput dose response assay to identify antagonists of the Galanin Receptor 3 (GalR3).; type: functional
T2 sequence (O60755 whole entry): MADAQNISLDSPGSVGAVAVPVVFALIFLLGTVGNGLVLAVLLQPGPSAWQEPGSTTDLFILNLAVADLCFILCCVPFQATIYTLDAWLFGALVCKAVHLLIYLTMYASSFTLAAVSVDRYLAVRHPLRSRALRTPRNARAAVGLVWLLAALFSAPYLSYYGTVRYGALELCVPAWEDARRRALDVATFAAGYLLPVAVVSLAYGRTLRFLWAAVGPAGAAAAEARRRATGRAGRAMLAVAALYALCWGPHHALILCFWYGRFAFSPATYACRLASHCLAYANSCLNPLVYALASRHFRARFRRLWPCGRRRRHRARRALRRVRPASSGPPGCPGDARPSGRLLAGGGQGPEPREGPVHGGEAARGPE

Streptococcus = assay: GAS UMAA2166 growth inhibition – luminescence, BacTiterGlo, counter-screen for streptokinase expression inhibitor project, dose response (AID 1915); type: functional, organism-based;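 note: potency for reduction of bacterial viability or growth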
[2] = target: 72 kDa type IV collagenase (Homo sapiens, UniProt P08253); assay: Dose Response validation of uHTS RPN11 inhibitor hits using a MMP-2 Fluorescence assay.; type: functional
Fatty acid synthase [3] = target: T1, Fatty acid synthase; assay: inhibition of human FAS-TE enzyme activity – biochemical, kinetic fluorescence intensity, dose response (AID 624326); type: functional;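 note: rate of fluorescence rise from hydrolysis of a fluorogenic O-methyl fluorescein ester substrate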
Prothrombin = Prothrombin (Bos taurus, UniProt P00735); assay: thrombin protease inhibitors – biochemical, fluorescence polarization, uHTS hits, dose response (AID 602369); type: functional
[4] = tested on: Streptococcus sp. 'group A'; assay: Streptococcus pyogenes SK(-)GAS viability under kanamycin – luminescence, BacTiterGlo, confirmation, counter-screen for streptokinase expression inhibitor project, dose response (AID 1900); type: functional, organism-based
[5] = target: 26S proteasome non-ATPase regulatory subunit 14 (Homo sapiens, UniProt O00487); assay: inhibition of proteasome subunit RPN11 – biochemical, fluorescence polarization, uHTS hits, confirmation (AID 602368); type: functional
[6] = target: T3, ATP-dependent translocase ABCB1 (Homo sapiens, UniProt P08183); assay: inhibition of BCRP-mediated JC-1 efflux – Ig-MXP3 cells, flow cytometry, set 2, dose response (AID 504566); type: functional; conditions: read-out: EC50_MICROM_;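 note: flow cytometry median green fluorescence of retained JC-1 dye; potency of efflux pump inhibition measured as rising substrate retention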
[7] = target: T3, ATP-dependent translocase ABCB1; assay: P-gp JC-1 efflux blockade concentration-response – Jurkat-DNR cells, flow cytometry, set 2, dose response (AID 504569); type: functional; conditions: read-out: EC50_MICROM_;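 note: potency of pump inhibitors that raise cellular JC-1 green fluorescence up to the nicardipine level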
[8] = target: T4, Small ubiquitin-related modifier 1 (Homo sapiens, UniProt P63165); assay: SUMO1 protein interaction blockers, potency – biochemical, fluorescence polarization, uHTS hits, dose response (AID 624382); type: functional; conditions: read-out: IC50_Mean
[9] = target: T5, Ubiquitin-conjugating enzyme E2 N (Homo sapiens, UniProt P61088); type: functional
T5 sequence (P61088 whole entry): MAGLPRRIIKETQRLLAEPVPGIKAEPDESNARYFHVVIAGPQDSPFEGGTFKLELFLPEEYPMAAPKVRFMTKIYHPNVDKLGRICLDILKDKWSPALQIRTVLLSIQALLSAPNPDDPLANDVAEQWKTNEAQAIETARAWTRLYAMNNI

[10] = target: T4, Small ubiquitin-related modifier 1; assay: SUMO1 protein-protein binding blockers, potency – biochemical, FRET, dose response (AID 624383); type: functional; conditions: read-out: IC50_Mean
[11] = target: T5, Ubiquitin-conjugating enzyme E2 N; type: functional; remark: listed apart in the source
Bcl-2-related protein A1 = target: T6, Bcl-2-related protein A1 (Mus musculus, UniProt Q07440); type: functional;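 note: confirmatory dose–response counterscreen on Bfl-1, used to check hits from a UBC13 polyubiquitin inhibitor campaign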
T6 sequence (Q07440 whole entry): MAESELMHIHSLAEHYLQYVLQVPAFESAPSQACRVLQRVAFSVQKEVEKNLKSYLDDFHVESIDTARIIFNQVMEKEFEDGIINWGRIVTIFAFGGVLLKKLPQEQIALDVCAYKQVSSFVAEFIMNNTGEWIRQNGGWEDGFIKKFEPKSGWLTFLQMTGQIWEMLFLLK

[12] = target: T7, Apoptotic protease-activating factor 1 (Homo sapiens, UniProt O14727); assay: SAR analysis of small molecule inhibitors of Apaf-1 in a Fluorescent assay.; type: functional; conditions: read-out: IC50_Mean
T7 sequence (O14727 whole entry): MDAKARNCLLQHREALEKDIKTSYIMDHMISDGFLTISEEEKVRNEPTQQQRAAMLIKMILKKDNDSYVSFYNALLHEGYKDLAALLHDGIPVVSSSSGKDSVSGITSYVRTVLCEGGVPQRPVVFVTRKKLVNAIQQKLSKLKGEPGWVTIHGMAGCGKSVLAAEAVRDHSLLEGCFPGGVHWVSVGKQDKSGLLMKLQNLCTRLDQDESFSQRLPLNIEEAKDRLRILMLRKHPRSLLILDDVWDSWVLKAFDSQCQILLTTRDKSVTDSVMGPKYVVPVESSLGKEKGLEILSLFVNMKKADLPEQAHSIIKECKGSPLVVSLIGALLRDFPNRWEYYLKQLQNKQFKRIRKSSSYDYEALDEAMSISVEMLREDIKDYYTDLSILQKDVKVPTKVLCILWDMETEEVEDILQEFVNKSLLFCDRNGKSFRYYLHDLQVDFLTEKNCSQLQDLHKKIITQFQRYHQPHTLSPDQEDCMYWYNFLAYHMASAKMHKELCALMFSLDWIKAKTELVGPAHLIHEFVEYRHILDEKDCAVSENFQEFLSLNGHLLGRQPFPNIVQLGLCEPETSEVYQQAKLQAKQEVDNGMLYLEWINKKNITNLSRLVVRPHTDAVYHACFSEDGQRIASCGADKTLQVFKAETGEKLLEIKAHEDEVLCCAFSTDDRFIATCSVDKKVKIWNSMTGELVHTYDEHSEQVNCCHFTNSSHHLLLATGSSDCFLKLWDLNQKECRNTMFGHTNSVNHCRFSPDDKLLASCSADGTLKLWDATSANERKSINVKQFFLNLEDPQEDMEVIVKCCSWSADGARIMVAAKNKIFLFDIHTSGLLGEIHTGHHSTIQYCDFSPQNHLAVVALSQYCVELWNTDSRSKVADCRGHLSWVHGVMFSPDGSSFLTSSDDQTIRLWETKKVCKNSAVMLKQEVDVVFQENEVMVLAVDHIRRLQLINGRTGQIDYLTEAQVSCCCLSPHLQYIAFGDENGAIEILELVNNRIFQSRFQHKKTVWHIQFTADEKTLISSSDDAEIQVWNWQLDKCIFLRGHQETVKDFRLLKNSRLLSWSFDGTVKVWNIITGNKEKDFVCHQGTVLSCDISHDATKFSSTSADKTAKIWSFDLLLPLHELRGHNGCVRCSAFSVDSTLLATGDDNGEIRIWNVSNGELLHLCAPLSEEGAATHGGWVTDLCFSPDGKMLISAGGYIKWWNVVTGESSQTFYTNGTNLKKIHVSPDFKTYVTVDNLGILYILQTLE

[13] = target: Adenosylmethionine-8-amino-7-oxononanoate aminotransferase (Mycobacterium tuberculosis, UniProt P9WQ81); assay: Mycobacterium tuberculosis BioA enzyme inhibitor Measured in Biochemical System Using Plate Reader - 2163-02_Inhibitor_Dose_CherryPick_Activity.; type: functional, Mycobacterium tuberculosis UT205
Interleukin-8 [14] = target: T8, Interleukin-8 (Homo sapiens, UniProt P10145); assay: Dose Response confirmation of uHTS small molecule hits for cystic fibrosis induced NFkb Inhibitors in a TNFa-induced IL8 counterscreen.; type: functional; conditions: read-out: IC50_Mean
Interleukin-8 [15] = target: T8, Interleukin-8; assay: Dose Response confirmation of uHTS small molecule hits for cystic fibrosis induced NFkb Inhibitors in a PAF-induced IL8 counterscreen.; type: functional; conditions: read-out: IC50_Mean

T8 sequence (P10145 whole entry): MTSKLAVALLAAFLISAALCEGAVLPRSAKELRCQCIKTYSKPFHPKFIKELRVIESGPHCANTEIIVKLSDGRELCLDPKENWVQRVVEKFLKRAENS
T1 sequence (P49327 whole entry): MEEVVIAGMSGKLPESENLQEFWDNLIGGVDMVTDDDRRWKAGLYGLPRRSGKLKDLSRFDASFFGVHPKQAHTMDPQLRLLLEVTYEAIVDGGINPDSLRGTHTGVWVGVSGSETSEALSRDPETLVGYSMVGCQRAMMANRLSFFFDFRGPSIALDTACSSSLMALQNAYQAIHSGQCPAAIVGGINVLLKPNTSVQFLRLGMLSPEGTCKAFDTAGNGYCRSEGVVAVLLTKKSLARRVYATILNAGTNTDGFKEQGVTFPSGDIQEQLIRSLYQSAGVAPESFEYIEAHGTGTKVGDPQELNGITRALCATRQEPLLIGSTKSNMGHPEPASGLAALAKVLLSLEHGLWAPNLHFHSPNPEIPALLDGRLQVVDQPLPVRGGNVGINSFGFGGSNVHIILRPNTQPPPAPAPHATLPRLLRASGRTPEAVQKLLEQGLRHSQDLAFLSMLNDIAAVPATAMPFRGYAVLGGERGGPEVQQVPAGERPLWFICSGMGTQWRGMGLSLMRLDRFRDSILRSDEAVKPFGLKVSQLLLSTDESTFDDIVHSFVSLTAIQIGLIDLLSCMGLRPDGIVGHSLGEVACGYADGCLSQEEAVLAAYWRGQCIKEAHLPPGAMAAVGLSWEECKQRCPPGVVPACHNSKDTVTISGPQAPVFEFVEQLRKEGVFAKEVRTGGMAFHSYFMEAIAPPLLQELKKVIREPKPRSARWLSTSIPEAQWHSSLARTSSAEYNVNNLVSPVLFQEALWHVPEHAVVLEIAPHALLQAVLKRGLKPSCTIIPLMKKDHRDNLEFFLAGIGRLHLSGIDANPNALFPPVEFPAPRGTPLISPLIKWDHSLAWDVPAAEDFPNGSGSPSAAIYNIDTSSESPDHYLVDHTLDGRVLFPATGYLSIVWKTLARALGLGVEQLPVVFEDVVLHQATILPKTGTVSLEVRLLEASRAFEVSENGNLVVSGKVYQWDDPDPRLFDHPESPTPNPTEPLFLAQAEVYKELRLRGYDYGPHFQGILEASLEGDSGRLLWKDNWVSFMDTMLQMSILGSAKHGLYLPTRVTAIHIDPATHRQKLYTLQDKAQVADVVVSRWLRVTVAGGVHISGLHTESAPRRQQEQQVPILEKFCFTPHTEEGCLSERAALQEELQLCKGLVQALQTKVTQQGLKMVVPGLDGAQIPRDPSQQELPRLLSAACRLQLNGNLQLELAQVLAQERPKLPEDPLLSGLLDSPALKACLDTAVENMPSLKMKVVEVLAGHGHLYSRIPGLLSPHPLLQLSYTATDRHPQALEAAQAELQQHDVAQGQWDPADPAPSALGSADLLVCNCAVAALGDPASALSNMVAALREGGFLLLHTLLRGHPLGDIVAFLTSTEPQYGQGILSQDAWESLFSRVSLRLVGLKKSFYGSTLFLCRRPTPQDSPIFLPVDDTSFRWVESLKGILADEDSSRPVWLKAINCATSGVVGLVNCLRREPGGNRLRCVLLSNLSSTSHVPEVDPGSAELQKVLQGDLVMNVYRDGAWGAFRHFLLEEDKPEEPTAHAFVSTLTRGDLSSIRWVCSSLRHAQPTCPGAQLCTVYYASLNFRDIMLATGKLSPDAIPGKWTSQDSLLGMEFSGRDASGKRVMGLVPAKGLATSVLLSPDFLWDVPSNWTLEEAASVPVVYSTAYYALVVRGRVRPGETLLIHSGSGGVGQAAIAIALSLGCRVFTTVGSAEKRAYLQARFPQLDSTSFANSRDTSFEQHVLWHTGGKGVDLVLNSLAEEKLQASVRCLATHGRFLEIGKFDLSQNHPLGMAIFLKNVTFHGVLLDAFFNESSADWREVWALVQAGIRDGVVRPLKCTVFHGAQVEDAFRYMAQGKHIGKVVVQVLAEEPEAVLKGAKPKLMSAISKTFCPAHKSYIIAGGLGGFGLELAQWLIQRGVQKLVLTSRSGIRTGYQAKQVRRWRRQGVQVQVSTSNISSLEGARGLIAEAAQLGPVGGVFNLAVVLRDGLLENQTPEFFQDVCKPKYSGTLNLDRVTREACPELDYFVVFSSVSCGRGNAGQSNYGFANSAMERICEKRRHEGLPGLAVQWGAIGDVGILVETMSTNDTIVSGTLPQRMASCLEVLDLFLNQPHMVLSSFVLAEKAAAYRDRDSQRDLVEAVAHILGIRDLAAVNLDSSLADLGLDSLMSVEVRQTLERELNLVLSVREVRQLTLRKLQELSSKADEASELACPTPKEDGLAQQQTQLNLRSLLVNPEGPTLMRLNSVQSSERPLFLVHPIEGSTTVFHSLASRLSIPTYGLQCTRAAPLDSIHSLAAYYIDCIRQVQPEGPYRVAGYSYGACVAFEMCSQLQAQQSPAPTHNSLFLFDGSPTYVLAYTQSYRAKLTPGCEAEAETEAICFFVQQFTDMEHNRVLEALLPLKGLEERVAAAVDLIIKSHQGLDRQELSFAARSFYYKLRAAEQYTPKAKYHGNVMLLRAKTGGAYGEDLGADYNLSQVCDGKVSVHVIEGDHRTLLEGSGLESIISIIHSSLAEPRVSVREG
T4 sequence (P63165 whole entry): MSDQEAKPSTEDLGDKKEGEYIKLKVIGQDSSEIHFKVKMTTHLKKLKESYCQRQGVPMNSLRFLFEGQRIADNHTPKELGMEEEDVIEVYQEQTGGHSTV
T3 sequence (P08183 whole entry): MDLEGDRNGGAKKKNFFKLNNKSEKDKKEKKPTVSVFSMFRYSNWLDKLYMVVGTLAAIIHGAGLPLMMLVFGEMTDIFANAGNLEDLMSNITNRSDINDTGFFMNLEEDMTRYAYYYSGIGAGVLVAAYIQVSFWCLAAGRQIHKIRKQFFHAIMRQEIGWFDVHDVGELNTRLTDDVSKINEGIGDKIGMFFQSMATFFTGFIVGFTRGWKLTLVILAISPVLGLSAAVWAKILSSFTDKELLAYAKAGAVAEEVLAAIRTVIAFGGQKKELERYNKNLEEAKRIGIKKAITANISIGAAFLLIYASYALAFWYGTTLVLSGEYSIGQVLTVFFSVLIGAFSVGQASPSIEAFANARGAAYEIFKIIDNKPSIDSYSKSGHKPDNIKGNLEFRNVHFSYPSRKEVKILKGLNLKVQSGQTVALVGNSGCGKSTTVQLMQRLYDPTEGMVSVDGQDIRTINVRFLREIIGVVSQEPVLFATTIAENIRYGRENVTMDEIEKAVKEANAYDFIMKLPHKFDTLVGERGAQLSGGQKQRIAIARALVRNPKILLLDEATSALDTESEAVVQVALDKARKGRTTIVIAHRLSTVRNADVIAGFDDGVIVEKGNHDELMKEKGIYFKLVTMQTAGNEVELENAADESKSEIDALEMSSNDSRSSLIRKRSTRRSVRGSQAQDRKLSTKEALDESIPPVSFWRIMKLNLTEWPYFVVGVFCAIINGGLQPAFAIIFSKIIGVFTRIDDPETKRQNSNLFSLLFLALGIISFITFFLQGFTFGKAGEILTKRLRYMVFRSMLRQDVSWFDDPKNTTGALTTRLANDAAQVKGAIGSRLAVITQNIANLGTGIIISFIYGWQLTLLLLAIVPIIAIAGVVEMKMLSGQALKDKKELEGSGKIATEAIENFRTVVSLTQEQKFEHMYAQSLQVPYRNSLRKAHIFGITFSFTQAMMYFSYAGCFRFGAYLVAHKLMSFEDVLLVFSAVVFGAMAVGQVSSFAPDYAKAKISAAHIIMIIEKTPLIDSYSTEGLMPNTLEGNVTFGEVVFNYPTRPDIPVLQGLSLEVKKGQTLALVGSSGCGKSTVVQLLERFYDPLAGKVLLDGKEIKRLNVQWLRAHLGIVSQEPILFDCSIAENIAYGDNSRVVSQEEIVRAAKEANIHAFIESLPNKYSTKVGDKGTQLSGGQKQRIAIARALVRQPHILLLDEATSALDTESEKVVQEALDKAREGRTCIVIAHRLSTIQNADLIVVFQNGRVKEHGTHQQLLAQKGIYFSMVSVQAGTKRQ
Adenosylmethionine-8-amino-7-oxononanoate aminotransferase, sequence (P9WQ81 whole entry): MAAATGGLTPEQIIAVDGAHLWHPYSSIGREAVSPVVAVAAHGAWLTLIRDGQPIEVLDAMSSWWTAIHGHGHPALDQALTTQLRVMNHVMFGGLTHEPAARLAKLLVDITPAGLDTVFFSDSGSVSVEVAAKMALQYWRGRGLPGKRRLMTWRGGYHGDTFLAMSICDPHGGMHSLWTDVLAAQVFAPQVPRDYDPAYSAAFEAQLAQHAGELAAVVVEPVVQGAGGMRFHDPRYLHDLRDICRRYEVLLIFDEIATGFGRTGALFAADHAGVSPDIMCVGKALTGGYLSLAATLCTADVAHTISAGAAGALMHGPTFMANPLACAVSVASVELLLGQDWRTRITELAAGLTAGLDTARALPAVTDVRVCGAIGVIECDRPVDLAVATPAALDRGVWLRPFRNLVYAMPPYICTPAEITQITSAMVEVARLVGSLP
72 kDa type IV collagenase, sequence (P08253 whole entry): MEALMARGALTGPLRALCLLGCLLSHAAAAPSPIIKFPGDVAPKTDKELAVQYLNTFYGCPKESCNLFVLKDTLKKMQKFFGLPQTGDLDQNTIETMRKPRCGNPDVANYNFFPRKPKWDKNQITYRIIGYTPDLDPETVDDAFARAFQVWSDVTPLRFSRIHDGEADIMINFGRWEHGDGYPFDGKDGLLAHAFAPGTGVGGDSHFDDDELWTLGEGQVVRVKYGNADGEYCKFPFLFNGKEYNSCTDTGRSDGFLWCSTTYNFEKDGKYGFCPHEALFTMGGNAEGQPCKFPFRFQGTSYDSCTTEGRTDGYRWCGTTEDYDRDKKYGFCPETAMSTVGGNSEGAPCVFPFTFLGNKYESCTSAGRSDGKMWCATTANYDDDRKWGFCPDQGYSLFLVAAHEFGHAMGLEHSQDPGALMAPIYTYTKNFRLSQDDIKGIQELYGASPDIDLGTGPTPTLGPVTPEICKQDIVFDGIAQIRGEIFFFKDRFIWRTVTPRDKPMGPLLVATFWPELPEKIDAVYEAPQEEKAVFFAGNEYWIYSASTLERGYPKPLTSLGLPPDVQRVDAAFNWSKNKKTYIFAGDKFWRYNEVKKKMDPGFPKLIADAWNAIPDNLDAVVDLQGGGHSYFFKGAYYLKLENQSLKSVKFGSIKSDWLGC

## COc1cc([N+](=O)[O-])cc(/C=N/NC(=O)c2cncc(Br)c2)c1O
Fatty acid synthase [1]
  IC50: 20 µM (active)
cells
  EC50: > 29.9 µM (inactive)
Galanin receptor type 3
  IC50: > 9.97 µM (active)
Streptococcus
  EC50: 1.02 µM (active)
[2]
  IC50: 12.5 µM (active)
Fatty acid synthase [3]
  IC50: 10.2 µM (active)
Prothrombin
  IC50: 39.1 µM (active)
[4]
  EC50: 1.85 µM (active)
[5]
  IC50: 49.5 µM (active)

## O=C(c1ccco1)N1CCN(c2cc(Cc3ccccc3)nc3cc(-c4cccc(Cl)c4)nn23)CC1
[6]
  EC50: 0.8 µM (active)
[7]
  EC50: 4.21 µM (active)

## CCN(CC)CCOC(=O)c1ccc(N/C=C(/C#N)c2nc(-c3ccc(OC)cc3)cs2)cc1
[8]
  IC50: > 66.6 µM (inactive)
[9]
  IC50: 4.88 µM (active)
[10]
  IC50: 5.97 µM (active)
[11]
  IC50: 4.3 µM (active)
Bcl-2-related protein A1
  IC50: 2.99 µM (active)
[12]
  IC50: 9.94 µM (active)

## O=C(N[C@@H]1CC[C@H](CCn2cc(-c3cccnc3)nn2)O[C@@H]1CO)c1ccccc1F
[13]
  AC50: 6.17 µM (active)

## CCN1CCN(Cc2ccc(NC(=O)c3ccc(C)c(NC(=O)N4CCNC4=O)c3)cc2C(F)(F)F)CC1
Interleukin-8 [14]
  IC50: > 79 µM (inactive)
Interleukin-8 [15]
  IC50: 56.5 µM (inactive)
